Read-outs that look alike come from different tables or passages of the source.
Experiments:
[1] = Cytotoxicity assay for HepG2 (MTT); type: cell-based, human; conditions: human
Description: (§1) Mammalian cytotoxicity assays were performed by Cyprotex. Cytotoxicity was assessed using the MTT assay. Briefly, HepG2 human hepatocellular carcinoma cells (100 μL per well) were plated on black-walled clear-bottomed polystyrene 96-well tissue culture treated plates 24 h prior to dosing the cells. The cells were dosed with test compound (dissolved in 0.5% DMSO in growth media containing 10% FBS) at a range of concentrations (0.04 μM, 0.1 μM, 0.4 μM, 1 μM, 4 μM, 10 μM, 40 μM, 100 μM). After 23 h period the cells were loaded with the MTT dye (yellow; 3-(4,5-dimethyl-2-thiazolyl)-2,5-diphenyl-2H-tetrazolium bromide) followed by an additional 1 h incubation (resulting in a total incubation time with antibiotics of 24 h). Subsequently, the plates are dried and solubilized in DMSO followed by scanning at 570 nm using a microplate absorbance reader. Cell viability is determined by conversion of the soluble MTT to insoluble formazan (purple) by mitochondrial […] in live cells. Production of formazan indicates […]. Carbonyl cyanide 3-chlorophenylhydrazone is used as no response control and chlorpromazine is used as control known to be cytotoxic. Solvent control wells (0.5% DMSO in growth media containing 10% FBS) are then used to determine significance limits for wells that have a greater than expected fraction of low or high responders. The minimum effective concentration is determined from the lowest concentration whose mean value exceeds the significance level, provided either a clear dose-response relationship is observed, or at least two consecutive concentration points are above the significance level. AC50 values are also determined provided a clear dose-response relationship is observed. Experiment was performed in triplicates.

MRSA USA 300 = experiment: Resistance development serial passage assay; type: cell-based, Staphylococcus aureus; conditions: MRSA serially passaged over 30 days in sub-lethal antibiotic concentrations
Description: (§2) FIG. 3 illustrates the results obtained when selected compounds were assessed using a resistance development serial passage assay. A) Daily fold-increase of MIC compared to initial MIC against MRSA USA 300 grown in sub-lethal concentrations of daptomycin, compound 5 or compound 16 over 30 days. B). Daily fold-increase of MIC compared to initial MIC against VRE E155 grown in sub-lethal concentrations of daptomycin, compound 5 or compound 16 over 30 days.
(§3) From glycerol stocks, bacterial strains were cultured on blood agar plates and incubated overnight at 37° C. A single colony was grown to exponential phase (OD600=0.5) in TSB+0.002% p80 and diluted 1:100 in fresh media. In polypropylene 96-well microtiter plates, antibiotics were added in biological triplicates and serial diluted 2-fold by transfer and mixing from one well to the next to achieve a final volume of 50 μL per well. An equal volume of bacterial suspension was added to the wells and plates were incubated overnight at 37° C. […] This procedure was repeated for 30 days and the MIC was recorded daily. Cultures containing daptomycin were supplemented with 50 mg L^−1 CaCl2 and 10 mg L^−1 MgSO4. The experiment was performed in biological replicates and for each replicate the MIC was determined from the median of a minimum of triplicates.

VRE E155 = experiment: Resistance development serial passage assay; type: cell-based, Enterococcus faecium; conditions: VanA-type VRE strain serially passaged over 30 days in sub-lethal antibiotic concentrations
Description: as §2, §3

[2] = test system: HepG2 human hepatocellular carcinoma cells; experiment: Cytotoxicity assay for HepG2 (MTT); type: cell-based
Description: as §1

For `N#CC(C#N)=NNc1cccc(Cl)c1` [carbonyl cyanide 3-chlorophenylhydrazone], the AC50 at 24 h ([1]; HepG2 human hepatocellular carcinoma cells, MTT, HepG2, 24 h, 10% FBS, n = 3, read-out: AC50) was over 100 µM.

For `CCCCCCCCCC(=O)N[C@@H](Cc1c[nH]c2ccccc12)C(=O)N[C@H](CC(N)=O)C(=O)N[C@@H](CC(=O)O)C(=O)N[C@@H]1C(=O)NCC(=O)N[C@@H](CCCN)C(=O)N[C@@H](CC(=O)O)C(=O)N[C@H](C)C(=O)N[C@@H](CC(=O)O)C(=O)NCC(=O)N[C@H](CO)C(=O)N[C@@H]([C@H](C)CC(=O)O)C(=O)N[C@@H](CC(=O)c2ccccc2N)C(=O)O[C@@H]1C` [daptomycin, reference compound], the “resistance induction, fold-increase of MIC compared to initial MIC” value (MRSA USA 300) was 16 fold and the “resistance induction, fold-increase of MIC compared to initial MIC” value (VRE E155) was 128 fold.

In the case of `CN(C)CCCN1c2ccccc2Sc2ccc(Cl)cc21` [Chropromazine], the AC50 at 24 h [1] is reported as 19 µM, the “Direction of response (↑↓)” value [2] is reported as “↓” and the MEC ([2]; human, 24 h) is reported as 12.4 µM.

Source: patent US20230174584A1, “Antibiotic Compounds” (priority 2019, published 2023)
